Reference: the kinase profiling compilation of Christmann-Franck et al. (2016)

Key:
[1] = target: ABL2 (human) (UniProt P42684)
[2] = target: ADCK3 (human) (UniProt Q8NI60)
[3] = target: BTK (human) (UniProt Q06187)
[4] = target: CAMK2B (human) (UniProt Q13554)
[5] = target: CAMK2D (human) (UniProt Q13557)
[6] = target: CDK13 (human) (UniProt Q14004)
[7] = target: CDK14 (human) (UniProt O94921)
[8] = target: CSNK1A1 (human) (UniProt P48729)
[9] = target: CSNK2A1 (human) (UniProt P68400)
[10] = target: CSNK2A2 (human) (UniProt P19784)
[11] = target: FGR (human) (UniProt P09769)
[12] = target: GAK (human) (UniProt O14976)
[13] = target: ITK (human) (UniProt Q08881)
[14] = target: JAK2 JH1 JH2 (human) (UniProt O60674)
[15] = target: LIMK1 (human) (UniProt P53667)
[16] = target: MAP2K2 (human) (UniProt P36507)
[17] = target: MAP3K1 (human) (UniProt Q13233)
[18] = target: MAP3K11 (human) (UniProt Q16584)
[19] = target: MAP3K4 (human) (UniProt Q9Y6R4)
[20] = target: MAP3K5 (human) (UniProt Q99683)
[21] = target: MAP4K1 (human) (UniProt Q92918)
[22] = target: MAP4K2 (human) (UniProt Q12851)
[23] = target: MAP4K5 (human) (UniProt Q9Y4K4)
[24] = target: MAPK8 (human) (UniProt P45983)
[25] = target: MAPK9 (human) (UniProt P45984)
[26] = target: MARK2 (human) (UniProt Q7KZI7)
[27] = target: MARK3 (human) (UniProt P27448)
[28] = target: MTOR (human) (UniProt P42345)
[29] = target: NEK7 (human) (UniProt Q8TDX7)
[30] = target: NEK9 (human) (UniProt Q8TD19)
[31] = target: PDPK1 (human) (UniProt O15530)
[32] = target: PRKAA1 (human) (UniProt Q13131)
[33] = target: PRKACB (human) (UniProt P22694)
[34] = target: PRKD2 (human) (UniProt Q9BZL6)
[35] = target: RPS6KA3 KD1 KD2 (human) (UniProt P51812)
[36] = target: RPS6KA4 KD1 KD2 (human) (UniProt O75676)
[37] = target: STK16 (human) (UniProt O75716)
[38] = target: TAOK3 (human) (UniProt Q9H2K8)
[39] = target: TGFBR2 (human) (UniProt P37173)
[40] = target: TNK2 (human) (UniProt Q07912)
[41] = target: TYK2 JH1 JH2 (human) (UniProt P29597)
[42] = target: ULK3 (human) (UniProt Q6PHR2)
[43] = target: WEE1 (human) (UniProt P30291)

Sequence of JAK2 JH1 JH2 (human) (O60674 whole entry, looked up): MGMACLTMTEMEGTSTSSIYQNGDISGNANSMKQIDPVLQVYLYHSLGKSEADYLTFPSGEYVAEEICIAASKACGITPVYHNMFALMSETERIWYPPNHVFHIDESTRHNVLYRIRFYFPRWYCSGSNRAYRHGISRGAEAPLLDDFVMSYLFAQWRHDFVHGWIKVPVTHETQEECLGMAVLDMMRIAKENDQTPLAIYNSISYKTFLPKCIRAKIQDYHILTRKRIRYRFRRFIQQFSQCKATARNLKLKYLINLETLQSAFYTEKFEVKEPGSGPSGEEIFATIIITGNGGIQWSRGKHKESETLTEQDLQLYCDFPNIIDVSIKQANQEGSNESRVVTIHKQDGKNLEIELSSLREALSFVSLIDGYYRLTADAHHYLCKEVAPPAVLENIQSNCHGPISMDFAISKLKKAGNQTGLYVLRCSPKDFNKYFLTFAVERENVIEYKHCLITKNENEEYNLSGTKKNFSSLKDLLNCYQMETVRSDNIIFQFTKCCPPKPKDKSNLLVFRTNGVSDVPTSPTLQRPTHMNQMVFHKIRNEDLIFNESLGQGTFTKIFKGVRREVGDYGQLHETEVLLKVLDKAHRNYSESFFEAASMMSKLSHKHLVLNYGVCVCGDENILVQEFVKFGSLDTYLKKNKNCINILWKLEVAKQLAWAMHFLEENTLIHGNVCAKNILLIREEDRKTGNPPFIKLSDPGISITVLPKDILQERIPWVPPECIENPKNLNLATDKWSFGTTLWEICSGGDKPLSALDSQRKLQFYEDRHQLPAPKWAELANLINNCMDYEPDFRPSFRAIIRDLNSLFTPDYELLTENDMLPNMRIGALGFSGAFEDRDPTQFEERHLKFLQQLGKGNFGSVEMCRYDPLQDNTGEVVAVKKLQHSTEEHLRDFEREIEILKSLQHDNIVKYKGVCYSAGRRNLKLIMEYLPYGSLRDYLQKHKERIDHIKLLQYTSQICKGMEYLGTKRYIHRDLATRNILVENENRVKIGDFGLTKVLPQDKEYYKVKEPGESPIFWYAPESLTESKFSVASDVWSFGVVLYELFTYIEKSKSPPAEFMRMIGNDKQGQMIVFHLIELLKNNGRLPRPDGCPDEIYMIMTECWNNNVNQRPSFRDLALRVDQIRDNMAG
Sequence of NEK9 (human) (Q8TD19 whole entry, looked up): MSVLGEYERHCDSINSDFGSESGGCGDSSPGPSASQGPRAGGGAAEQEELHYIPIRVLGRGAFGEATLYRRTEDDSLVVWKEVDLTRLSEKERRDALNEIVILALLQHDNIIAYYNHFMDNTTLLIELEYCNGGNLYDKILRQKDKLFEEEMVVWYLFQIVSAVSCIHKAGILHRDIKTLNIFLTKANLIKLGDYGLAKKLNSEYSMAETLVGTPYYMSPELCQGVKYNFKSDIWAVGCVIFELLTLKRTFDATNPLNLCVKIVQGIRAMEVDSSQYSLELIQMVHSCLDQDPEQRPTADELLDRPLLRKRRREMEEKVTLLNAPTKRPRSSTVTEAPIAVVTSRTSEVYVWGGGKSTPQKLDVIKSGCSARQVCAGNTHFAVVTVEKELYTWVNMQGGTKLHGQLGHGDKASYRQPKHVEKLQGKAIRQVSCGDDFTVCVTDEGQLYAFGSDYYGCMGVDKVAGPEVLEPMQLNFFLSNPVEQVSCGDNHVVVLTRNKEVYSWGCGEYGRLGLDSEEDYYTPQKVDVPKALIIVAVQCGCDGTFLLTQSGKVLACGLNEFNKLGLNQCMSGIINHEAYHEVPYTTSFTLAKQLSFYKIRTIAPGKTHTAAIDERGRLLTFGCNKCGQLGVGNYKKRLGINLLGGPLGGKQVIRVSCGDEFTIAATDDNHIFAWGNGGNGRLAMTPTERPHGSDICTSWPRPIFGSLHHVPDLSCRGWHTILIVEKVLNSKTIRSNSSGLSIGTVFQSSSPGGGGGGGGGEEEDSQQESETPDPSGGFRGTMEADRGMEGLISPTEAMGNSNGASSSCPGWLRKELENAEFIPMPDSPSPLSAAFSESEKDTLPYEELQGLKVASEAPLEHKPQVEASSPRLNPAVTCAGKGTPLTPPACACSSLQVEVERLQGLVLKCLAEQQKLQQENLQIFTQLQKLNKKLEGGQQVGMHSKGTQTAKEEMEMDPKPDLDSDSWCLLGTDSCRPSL
Sequence of MAP3K11 (human) (Q16584 whole entry, looked up): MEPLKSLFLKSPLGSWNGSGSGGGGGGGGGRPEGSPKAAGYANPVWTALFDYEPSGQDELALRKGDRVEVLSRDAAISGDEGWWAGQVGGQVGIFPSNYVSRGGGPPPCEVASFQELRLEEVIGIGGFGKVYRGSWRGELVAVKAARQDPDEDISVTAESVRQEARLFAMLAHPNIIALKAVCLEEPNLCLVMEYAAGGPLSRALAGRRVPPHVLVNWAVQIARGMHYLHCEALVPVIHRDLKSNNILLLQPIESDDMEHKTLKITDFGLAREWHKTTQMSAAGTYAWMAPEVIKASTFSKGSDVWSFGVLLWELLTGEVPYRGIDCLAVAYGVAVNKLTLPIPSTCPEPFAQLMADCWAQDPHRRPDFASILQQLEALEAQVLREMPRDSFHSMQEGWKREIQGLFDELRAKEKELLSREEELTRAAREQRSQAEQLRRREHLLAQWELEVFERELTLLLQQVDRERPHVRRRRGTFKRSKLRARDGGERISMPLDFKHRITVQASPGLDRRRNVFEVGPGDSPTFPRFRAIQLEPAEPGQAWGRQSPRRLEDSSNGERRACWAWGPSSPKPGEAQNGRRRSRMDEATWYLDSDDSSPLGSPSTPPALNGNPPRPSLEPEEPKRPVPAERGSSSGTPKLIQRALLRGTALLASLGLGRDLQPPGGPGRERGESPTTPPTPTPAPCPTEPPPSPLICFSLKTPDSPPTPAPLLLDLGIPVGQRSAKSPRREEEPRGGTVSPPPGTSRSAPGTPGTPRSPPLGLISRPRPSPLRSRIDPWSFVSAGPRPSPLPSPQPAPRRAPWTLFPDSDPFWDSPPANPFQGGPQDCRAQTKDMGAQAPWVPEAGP
Sequence of MAP4K2 (human) (Q12851 whole entry, looked up): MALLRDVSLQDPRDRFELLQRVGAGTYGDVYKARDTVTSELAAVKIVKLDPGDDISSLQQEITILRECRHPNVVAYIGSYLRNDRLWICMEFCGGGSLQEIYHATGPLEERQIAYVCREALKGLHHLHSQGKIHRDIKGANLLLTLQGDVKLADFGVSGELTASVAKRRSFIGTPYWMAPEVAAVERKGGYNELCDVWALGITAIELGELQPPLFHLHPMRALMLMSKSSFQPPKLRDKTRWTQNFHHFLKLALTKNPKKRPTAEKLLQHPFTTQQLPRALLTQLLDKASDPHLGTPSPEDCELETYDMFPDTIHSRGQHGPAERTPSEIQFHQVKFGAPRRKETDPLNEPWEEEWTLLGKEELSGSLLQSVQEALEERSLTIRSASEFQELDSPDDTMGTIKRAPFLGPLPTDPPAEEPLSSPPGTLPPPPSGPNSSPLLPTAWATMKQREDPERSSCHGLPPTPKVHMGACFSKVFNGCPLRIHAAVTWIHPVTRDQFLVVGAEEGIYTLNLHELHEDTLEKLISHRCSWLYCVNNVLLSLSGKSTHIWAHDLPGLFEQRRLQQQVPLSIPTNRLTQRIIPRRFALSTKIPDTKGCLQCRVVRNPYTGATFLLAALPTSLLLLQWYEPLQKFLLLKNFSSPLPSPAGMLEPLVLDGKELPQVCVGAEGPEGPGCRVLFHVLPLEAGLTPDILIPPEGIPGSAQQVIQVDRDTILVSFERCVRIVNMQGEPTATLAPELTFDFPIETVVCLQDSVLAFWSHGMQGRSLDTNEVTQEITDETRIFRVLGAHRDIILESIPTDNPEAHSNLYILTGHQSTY
Sequence of MARK3 (human) (P27448 whole entry, looked up): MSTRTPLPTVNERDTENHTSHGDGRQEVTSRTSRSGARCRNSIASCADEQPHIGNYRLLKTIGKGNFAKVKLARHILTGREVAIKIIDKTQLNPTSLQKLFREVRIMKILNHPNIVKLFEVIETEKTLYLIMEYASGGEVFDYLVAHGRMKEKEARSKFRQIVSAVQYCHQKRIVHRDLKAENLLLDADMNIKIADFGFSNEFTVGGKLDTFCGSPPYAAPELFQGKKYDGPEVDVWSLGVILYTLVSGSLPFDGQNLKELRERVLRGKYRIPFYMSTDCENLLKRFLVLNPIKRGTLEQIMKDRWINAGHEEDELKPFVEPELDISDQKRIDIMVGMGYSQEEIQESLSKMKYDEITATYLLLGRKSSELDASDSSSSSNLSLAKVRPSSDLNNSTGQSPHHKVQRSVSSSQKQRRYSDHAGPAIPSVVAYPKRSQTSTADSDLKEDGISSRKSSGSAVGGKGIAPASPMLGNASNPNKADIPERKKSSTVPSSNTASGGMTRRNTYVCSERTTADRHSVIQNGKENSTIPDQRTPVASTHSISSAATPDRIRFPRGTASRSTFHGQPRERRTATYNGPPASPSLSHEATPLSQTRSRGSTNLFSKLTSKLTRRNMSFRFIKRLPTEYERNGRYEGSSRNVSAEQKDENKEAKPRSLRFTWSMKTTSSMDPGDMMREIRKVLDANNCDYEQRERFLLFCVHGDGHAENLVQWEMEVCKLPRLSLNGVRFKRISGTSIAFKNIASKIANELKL
Sequence of FGR (human) (P09769 whole entry, looked up): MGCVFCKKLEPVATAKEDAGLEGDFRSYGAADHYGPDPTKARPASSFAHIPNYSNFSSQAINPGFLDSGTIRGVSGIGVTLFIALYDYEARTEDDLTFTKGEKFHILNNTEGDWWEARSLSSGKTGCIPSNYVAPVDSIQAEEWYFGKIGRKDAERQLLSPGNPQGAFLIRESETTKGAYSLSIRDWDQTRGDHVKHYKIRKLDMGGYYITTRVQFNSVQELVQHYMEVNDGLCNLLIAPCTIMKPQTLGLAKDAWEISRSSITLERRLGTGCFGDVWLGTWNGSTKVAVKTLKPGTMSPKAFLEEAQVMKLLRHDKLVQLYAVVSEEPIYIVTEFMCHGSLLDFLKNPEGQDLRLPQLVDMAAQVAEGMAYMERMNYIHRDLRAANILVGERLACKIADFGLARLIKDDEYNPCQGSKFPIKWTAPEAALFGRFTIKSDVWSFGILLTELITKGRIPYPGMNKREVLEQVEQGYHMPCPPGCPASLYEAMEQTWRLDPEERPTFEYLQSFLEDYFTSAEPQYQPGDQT

IC50 [1]: > 10 µM
IC50 [2]: > 10 µM
IC50 [3]: > 10 µM
IC50 [4]: 7.68 µM
IC50 [5]: 7.67 µM
IC50 [6]: 4.4 µM
IC50 [7]: 2.96 µM
IC50 [8]: 8.41 µM
IC50 [9]: 9.42 µM
IC50 [10]: > 10 µM
IC50 [11]: > 10 µM
IC50 [12]: > 10 µM
IC50 [13]: > 10 µM
IC50 [14]: > 10 µM
IC50 [15]: > 10 µM
IC50 [16]: > 10 µM
IC50 [17]: > 10 µM
IC50 [18]: > 10 µM
IC50 [19]: > 10 µM
IC50 [20]: > 10 µM
IC50 [21]: > 10 µM
IC50 [22]: > 10 µM
IC50 [23]: > 10 µM
IC50 [24]: > 10 µM
IC50 [25]: > 10 µM
IC50 [26]: > 10 µM
IC50 [27]: 3 µM
IC50 [28]: > 10 µM
IC50 [29]: > 10 µM
IC50 [31]: > 10 µM
IC50 [32]: > 10 µM
IC50 [33]: > 10 µM
IC50 [34]: 1.26 µM
IC50 [35]: > 10 µM
IC50 [36]: 6.42 µM
IC50 [37]: > 10 µM
IC50 [38]: 9.47 µM
IC50 [39]: > 10 µM
IC50 [40]: > 10 µM
IC50 [41]: 2.48 µM
IC50 [42]: > 10 µM
IC50 [43]: > 10 µM
Structure (SMILES): CN1CC[C@H](c2c(O)cc(O)c3c(=O)cc(-c4ccccc4Cl)oc23)[C@H](O)C1
IC50 [30]: > 10 µM
